Patent US20100216886A1, “POLYMORPHS OF N2-(1,1'-BIPHENYL-4-YLCARBONYL)-N1-[2-(4-FLUOROPHENYL)-1,1-DIMETHYLETHYL]-L-ALPHA-GLUTAMINE” (Wyeth, priority 2006, published 2010)
Values after ≈ are worked out from the molar mass of the structure shown.

How the values were obtained:
Assay type in all cases: physicochemical
[1] = Equilibrium moisture study in desiccators with saturated salt solutions (KF, XRD); details: for Moisture (%) 1-day / Moisture (%) 3-day / Moisture (%) 7-day / Moisture (%) 20-day / XRD Polymorph / Moisture (%) 4-day: room temperature; for XRD Polymorph: end of 20 days
Procedure: As a result, an equilibrium moisture study using desiccators containing saturated salt solutions for humidity control was performed. […] Samples were periodically assayed by KF titration to give the kinetic profiles. XRD analysis was performed at the end of 20 days. The data is summarized in Table 8 with kinetic and equilibrium data plotted in FIGS. 18 and 19.

[2] = Dynamic Vapor Sorption (DVS) analysis; details: room temperature, 6-hour equilibration period
Excerpt: Sample F was subject to Dynamic Vapor Sorption (DVS) analysis at room temperature. The sample was first analyzed by Karl Fischer (KF) titration containing initial moisture content of 3.7% for the monohydrate form. RH cycling started at 50% relative humidity (RH) to 100% RH and down to 0% RH and then back up to 100% RH. A 3-hour/step equilibration period was found insufficient, so the run was repeated with a 6-hour period, which was still not sufficient.
As a result, an equilibrium moisture study using desiccators containing saturated salt solutions for humidity control was performed. Sample F was incubated at 0%, 15%, 31%, 66%, 87%, and 100% RH in room temperature for up to 20 days. Samples were periodically assayed by KF titration to give the kinetic profiles. XRD analysis was performed at the end of 20 days. The data is summarized in Table 8 with kinetic and equilibrium data plotted in FIGS. 18 and 19.

Solid state stability = experiment: Solid state stability
Procedure: Sample F containing polymorph Form B was further investigated at 40° C./75% RH using open and closed vials for 3 months. […] Therefore, the monohydrate needs to be stored in hermetically sealed containers in order to prevent conversion to the sesquihydrate.

[3] = Solubility in water and 2% Tw80 of samples used in toxicological formulation assessments; details: 2% Tw80
Excerpt: Table 6 summarizes various solid-state properties of samples used in toxicological formulation assessments.

[4] = Polymorphic conversion study in aqueous media (2% Tween 80, water)
Excerpt: Polymorphic conversion of Form A to Form B was not observed with Sample D in 2% Tween 80 or water.
Polymorph pseudo Form A was obtained from a scaled up preparation of polymorph Form A (Sample E).
The polymorphic conversion appeared to be slower in water than in the 2% Tween suspension, probably due to the lower solubility in water.
DSC data also supported this observation (FIG. 11).

[5] = Slurry in water at 50° C. (polymorphic transformation); details: slurry in water at 50° C. for 12-24 hr
Procedure: Powder XRD patterns comparing the starting material to polymorph pseudo Form A are shown in FIG. 34, and DSC thermograms of both batches at 50° C. are shown in FIG. 35.

CC(C)(Cc1ccc(F)cc1)NC(=O)[C@H](CCC(=O)O)NC(=O)c1ccc(-c2ccccc2)cc1 [Form B, N^2-(1,1′-biphenyl-4-ylcarbonyl)-N^1-[2-(4-fluorophenyl)-1,1-dimethylethyl]-L-α-glutamine]
Moisture (%) 1-day ([1]; 0% RH): 3.48% | Moisture (%) 3-day ([1]; 0% RH): 3.55% | Moisture (%) 7-day ([1]; 0% RH): 3.57% | Moisture (%) 20-day ([1]; 0% RH): 2.78% | XRD Polymorph ([1]; 0% RH): Pattern B, Form B | Moisture (%) 1-day ([1]; 15% RH): 3.97% | Moisture (%) 4-day ([1]; 15% RH): 3.99% | Moisture (%) 7-day ([1]; 15% RH): 3.74% | Moisture (%) 20-day ([1]; 15% RH): 3.79% | XRD Polymorph ([1]; 15% RH): Pattern B, Form B | Moisture (%) 1-day ([1]; 31% RH): 3.61% | Moisture (%) 4-day ([1]; 31% RH): 5.01% | Moisture (%) 7-day ([1]; 31% RH): 3.93% | Moisture (%) 20-day ([1]; 31% RH): 3.79% | XRD Polymorph ([1]; 31% RH): Pattern B, Form B | Moisture (%) 1-day ([1]; 47% RH): 3.81% | Moisture (%) 3-day ([1]; 47% RH): 3.73% | Moisture (%) 7-day ([1]; 47% RH): 4.00% | Moisture (%) 20-day ([1]; 47% RH): 4.19% | XRD Polymorph ([1]; 47% RH): Pattern B, Form B | Moisture (%) 1-day ([1]; 66% RH): 5.12% | Moisture (%) 4-day ([1]; 66% RH): 5.28% | Moisture (%) 7-day ([1]; 66% RH): 5.34% | Moisture (%) 20-day ([1]; 66% RH): 5.1% | XRD Polymorph ([1]; 66% RH): Pattern C, Form C | Moisture (%) 1-day ([1]; 84% RH): 5.55% | Moisture (%) 3-day ([1]; 84% RH): 5.43% | Moisture (%) 7-day ([1]; 84% RH): 5.55% | Moisture (%) 20-day ([1]; 84% RH): 5.71% | XRD Polymorph ([1]; 84% RH): Pattern C, Form C | Moisture (%) 1-day ([1]; 100% RH): 5.55% | Moisture (%) 4-day ([1]; 100% RH): 8.08% | Moisture (%) 7-day ([1]; 100% RH): 6.14% | Moisture (%) 20-day ([1]; 100% RH): 6.22% | XRD Polymorph ([1]; 100% RH): Pattern C, Form C | RH range at which the form is present by XRD ([1]; Sample F incubated at room temperature, 20 days, listed as monohydrate): 0-47 % RH | Moisture (%) T = 0 ([1]; initial, KF titration): 3.82% | RH range in which the form is stable (DVS) [2]: 0-50 % RH | HPLC Impurity (%) (Solid state stability; 40 C./75% RH Closed, 4 wk): 0.34% | KF (%) (Solid state stability; 40 C./75% RH Closed, 4 wk): 5.35% | XRD Polymorph (Solid state stability; 40 C./75% RH Closed, 4 wk): Form C Pattern C | HPLC Impurity (%) (Solid state stability; 40 C./75% RH Closed, 8 wk): 0.41% | KF (%) (Solid state stability; 40 C./75% RH Closed, 8 wk): 5.79% | XRD Polymorph (Solid state stability; 40 C./75% RH Closed, 8 wk): Form C Pattern C | HPLC Impurity (%) (Solid state stability; 40 C./75% RH Open, 4 wk): 0.36% | KF (%) (Solid state stability; 40 C./75% RH Open, 4 wk): 5.34% | XRD Polymorph (Solid state stability; 40 C./75% RH Open, 4 wk): Form C Pattern C | HPLC Impurity (%) (Solid state stability; 40 C./75% RH Open, 8 wk): 0.49% | KF (%) (Solid state stability; 40 C./75% RH Open, 8 wk): 5.53% | XRD Polymorph (Solid state stability; 40 C./75% RH Open, 8 wk): Form C Pattern C | Duration of sufficient heat stability (Solid state stability; 40° C./75% RH): at least 3 months | HPLC Impurity (%) (Solid state stability; Initial, time 0): 0.30% | KF (%) (Solid state stability; Initial, time 0): 3.82% | XRD Polymorph (Solid state stability; Initial, time 0): Form B Pattern B

CC(C)(Cc1ccc(F)cc1)NC(=O)[C@H](CCC(=O)O)NC(=O)c1ccc(-c2ccccc2)cc1 [Sample E, N^2-(1,1′-biphenyl-4-ylcarbonyl)-N^1-[2-(4-fluorophenyl)-1,1-dimethylethyl]-L-α-glutamine]
Solubility, 2% Tw80 [3]: 330 µg/mL (≈ 692 µM) | pH of 2% Tw80 solubility sample [3]: 5.6 | Polymorphic conversion / Polymorph Form after stirring ([4]; suspension 100 mg/mL in 2% Tween 80, ambient conditions, about 0.5 hr): transformation of pseudo Form A to Form B | Polymorphic conversion / Polymorph Form after stirring ([4]; suspension 100 mg/mL in water, overnight (~18 hr), ambient conditions): transformation of pseudo Form A to Form B | Change of powder XRD pattern or melting point / polymorphic transformation [5]: transformed to a lower melting point polymorph form
